Patent US20260146035A1, “FUSED BICYCLIC COMPOUNDS AND THEIR USE AS MER AND AXL INHIBITORS” (DONG-A ST CO., LTD., priority 2022, published 2026)

Assays:
human TYRO3 (455-end) = biological target: T1, human TYRO3 (455-end) (Homo sapiens, UniProt Q06418); test: HTRF kinase activity biochemical assay, TYRO3; settings: 10 μM ATP, 30 minutes pre-incubation; read-out: HTRF TYRO IC50
T1 construct: TYRO3 (455-end); purchased SignalChem, Canada
T1 sequence (Q06418 455-890 limits assumed): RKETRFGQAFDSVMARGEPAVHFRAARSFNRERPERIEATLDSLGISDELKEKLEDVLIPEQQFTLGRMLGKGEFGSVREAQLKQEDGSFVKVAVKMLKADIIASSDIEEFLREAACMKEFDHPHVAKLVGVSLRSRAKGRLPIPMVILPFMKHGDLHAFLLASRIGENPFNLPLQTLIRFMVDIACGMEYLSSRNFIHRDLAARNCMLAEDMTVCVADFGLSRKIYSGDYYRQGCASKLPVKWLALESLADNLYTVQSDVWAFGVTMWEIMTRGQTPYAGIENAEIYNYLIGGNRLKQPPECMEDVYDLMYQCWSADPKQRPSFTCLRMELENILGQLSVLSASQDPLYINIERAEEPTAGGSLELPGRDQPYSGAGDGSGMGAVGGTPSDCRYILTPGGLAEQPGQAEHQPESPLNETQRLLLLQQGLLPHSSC

human AXL (473-end) = biological target: T2, human AXL (473-end) (Homo sapiens, UniProt P30530); test: HTRF kinase activity biochemical assay, AXL; settings: 10 μM ATP, 30 minutes pre-incubation
T2 construct: human AXL (473-end); purchased SignalChem, Canada
T2 sequence (P30530 473-894 limits assumed): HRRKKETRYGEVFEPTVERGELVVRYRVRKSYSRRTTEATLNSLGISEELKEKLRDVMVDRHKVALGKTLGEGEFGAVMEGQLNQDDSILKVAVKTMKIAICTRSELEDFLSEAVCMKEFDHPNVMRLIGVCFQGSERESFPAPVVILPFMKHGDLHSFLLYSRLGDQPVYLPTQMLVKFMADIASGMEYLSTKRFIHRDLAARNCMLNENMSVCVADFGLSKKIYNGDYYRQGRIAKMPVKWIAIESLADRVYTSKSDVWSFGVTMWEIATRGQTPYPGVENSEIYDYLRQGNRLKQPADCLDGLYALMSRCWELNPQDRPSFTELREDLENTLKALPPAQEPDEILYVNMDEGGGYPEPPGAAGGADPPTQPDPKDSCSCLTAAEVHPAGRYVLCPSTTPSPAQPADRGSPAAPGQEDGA

human MER (528-end) = biological target: T3, human MER (528-end) (Homo sapiens, UniProt Q12866); test: HTRF kinase activity biochemical assay, MER; settings: 10 μM ATP, 30 minutes pre-incubation; read-out: HTRF MERTK IC50
T3 construct: human MER (528-end); purchased Camnabio, Japan
T3 sequence (Q12866 528-999 limits assumed): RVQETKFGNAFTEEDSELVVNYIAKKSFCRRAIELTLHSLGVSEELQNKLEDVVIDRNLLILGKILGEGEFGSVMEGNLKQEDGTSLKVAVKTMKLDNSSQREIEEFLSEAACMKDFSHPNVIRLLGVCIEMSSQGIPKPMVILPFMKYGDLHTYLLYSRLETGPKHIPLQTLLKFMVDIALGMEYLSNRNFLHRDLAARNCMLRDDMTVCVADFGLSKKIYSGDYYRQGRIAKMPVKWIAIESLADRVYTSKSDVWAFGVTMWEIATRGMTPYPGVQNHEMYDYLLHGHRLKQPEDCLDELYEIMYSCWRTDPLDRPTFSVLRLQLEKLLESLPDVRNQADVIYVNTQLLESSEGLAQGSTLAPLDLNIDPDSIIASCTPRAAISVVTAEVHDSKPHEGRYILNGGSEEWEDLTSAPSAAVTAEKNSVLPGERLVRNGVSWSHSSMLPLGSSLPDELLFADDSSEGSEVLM

## CN1C(=O)Cc2cc(-c3ccc(CO[C@H]4CCC[C@@H]4NC(=O)c4cc(-c5cnn(C)c5)cnc4N)cc3)ccc21 [Example 3, 2-amino-N-[(1S,2S)-2-{[4-(1-methyl-2-oxo-2,3-dihydro-1H-indol-5-yl)phenyl]methoxy}cyclopentyl]-5-(1-methyl-1H-pyrazol-4-yl)pyridine-3-carboxamide]
Human TYRO3 (455-end)
  IC50: > 1000 nM
Human AXL (473-end)
  IC50: 100 to 1000 nM
Human MER (528-end)
  IC50: 10 to 100 nM

## Cn1cc(-c2cnc(N)c(C(=O)N[C@H]3CCC[C@@H]3OCc3ccc(-c4ccc5c(c4)CCC[C@@H]5N4CCNCC4)cc3)c2)cn1 [Example 141, 2-amino-5-(1-methyl-1H-pyrazol-4-yl)-N-[(1S,2S)-2-({4-[(5S)-5-(piperazin-1-yl)-5,6,7,8-tetrahydronaphthalen-2-yl]phenyl}methoxy)cyclopentyl]pyridine-3-carboxamide]
Human TYRO3 (455-end)
  IC50: 10 to 100 nM
Human AXL (473-end)
  IC50: < 10 nM
Human MER (528-end)
  IC50: < 10 nM

## CN1CCC(N2CC(C)(C)c3cc(-c4ccc(CO[C@H]5CCC[C@@H]5NC(=O)c5cc(-c6cnn(C)c6)cnc5N)cc4)ccc32)CC1 [Example 12, 2-amino-N-[(1S,2S)-2-({4-[3,3-dimethyl-1-(1-methylpiperidin-4-yl)-2,3-dihydro-1H-indol-5-yl]phenyl}methoxy)cyclopentyl]-5-(1-methyl-1H-pyrazol-4-yl)pyridine-3-carboxamide]
Human TYRO3 (455-end)
  IC50: 10 to 100 nM
Human AXL (473-end)
  IC50: < 10 nM
Human MER (528-end)
  IC50: < 10 nM

## Cn1cc(-c2cnc(N)c(C(=O)N[C@H]3C[C@H](O)C[C@@H]3OCc3ccc(-c4ccc5c(c4)C(C)(C)CN5C4CCN(CCO)CC4)cc3)c2)cn1 (relative stereo) [Example 38, rel-2-amino-N-{(1S,2S,4S)-4-hydroxy-2-[(4-{1-[1-(2-hydroxyethyl)piperidin-4-yl]-3,3-dimethyl-2,3-dihydro-1H-indol-5-yl}phenyl)methoxy]cyclopentyl}-5-(1-methyl-1H-pyrazol-4-yl)pyridine-3-carboxamide]
Human TYRO3 (455-end)
  IC50: 10 to 100 nM
Human AXL (473-end)
  IC50: < 10 nM
Human MER (528-end)
  IC50: < 10 nM

## CN(CCC(O)CO)C1CCc2cc(-c3ccc(CO[C@H]4CCC[C@@H]4NC(=O)c4cc(-c5cccnc5F)cnc4N)cc3)ccc21 (stereo partly drawn) [Example 127, 6-amino-N-{(1S,2S)-2-[(4-{1-[(3,4-dihydroxybutyl)(methyl)amino]-2,3-dihydro-1H-inden-5-yl}phenyl)methoxy]cyclopentyl}-2′-fluoro[3,3′-bipyridine]-5-carboxamide]
Human TYRO3 (455-end)
  IC50: > 1000 nM
Human AXL (473-end)
  IC50: 100 to 1000 nM
Human MER (528-end)
  IC50: 10 to 100 nM

## Cn1cc(-c2cnc(N)c(C(=O)N[C@H]3COC[C@@H]3OCc3ccc(-c4ccc5c(c4)CCC5N4CCN(CCO)CC4)cc3)c2)cn1 (stereo partly drawn) [Example 18, 2-amino-N-{(3S,4R)-4-[(4-{1-[4-(2-hydroxyethyl)piperazin-1-yl]-2,3-dihydro-1H-inden-5-yl}phenyl)methoxy]oxolan-3-yl}-5-(1-methyl-1H-pyrazol-4-yl)pyridine-3-carboxamide]
Human TYRO3 (455-end)
  IC50: 100 to 1000 nM
Human AXL (473-end)
  IC50: 10 to 100 nM
Human MER (528-end)
  IC50: < 10 nM

## COc1nc(-c2cnc(N)c(C(=O)N[C@H]3CCC[C@@H]3OCc3ccc(-c4ccc5c(c4)CC[C@@H]5N4CCN(CCO)CC4)cc3)c2)cs1 [Example 179, 2-amino-N-{(1S,2S)-2-[(4-{(1S)-1-[4-(2-hydroxyethyl)piperazin-1-yl]-2,3-dihydro-1H-inden-5-yl}phenyl)methoxy]cyclopentyl}-5-(2-methoxy-1,3-thiazol-4-yl)pyridine-3-carboxamide]
Human TYRO3 (455-end)
  IC50: 10 to 100 nM
Human AXL (473-end)
  IC50: < 10 nM
Human MER (528-end)
  IC50: < 10 nM

## Cn1cc(-c2cnc(N)c(C(=O)N[C@H]3CCC[C@@H]3OCc3ccc(-c4ccc5c(c4)CC(C)(C)C5N4CCN(CCO)CC4)cc3)c2)cn1 (stereo partly drawn) [Example 105, 2-amino-N-{(1S,2S)-2-[(4-{1-[4-(2-hydroxyethyl)piperazin-1-yl]-2,2-dimethyl-2,3-dihydro-1H-inden-5-yl}phenyl)methoxy]cyclopentyl}-5-(1-methyl-1H-pyrazol-4-yl)pyridine-3-carboxamide]
Human TYRO3 (455-end)
  IC50: 100 to 1000 nM
Human AXL (473-end)
  IC50: < 10 nM
Human MER (528-end)
  IC50: < 10 nM

## COc1ccc(-c2cnc(N)c(C(=O)N[C@H]3CCC[C@@H]3OCc3ccc(-c4ccc5c(c4)CC[C@@H]5N4CCN(C)CC4)cc3)c2)cn1 [Example 152, 6-amino-6′-methoxy-N-[(1S,2S)-2-({4-[(1S)-1-(4-methylpiperazin-1-yl)-2,3-dihydro-1H-inden-5-yl]phenyl}methoxy)cyclopentyl][3,3′-bipyridine]-5-carboxamide]
Human TYRO3 (455-end)
  IC50: 100 to 1000 nM
Human AXL (473-end)
  IC50: < 10 nM
Human MER (528-end)
  IC50: < 10 nM

## Cn1cc(-c2cnc(N)c(C(=O)N[C@H]3CCC[C@@H]3OCc3ccc(-c4ccc5c(c4)C4(CC4)CN(C4CCN(CCO)CC4)C5)cc3)c2)cn1 [Example 72, 2-amino-N-{(1S,2S)-2-[(4-{2′-[1-(2-hydroxyethyl)piperidin-4-yl]-2′,3′-dihydro-1′H-spiro[cyclopropane-1,4′-isoquinolin]-6′-yl}phenyl)methoxy]cyclopentyl}-5-(1-methyl-1H-pyrazol-4-yl)pyridine-3-carboxamide]
Human TYRO3 (455-end)
  IC50: > 1000 nM
Human AXL (473-end)
  IC50: > 1000 nM
Human MER (528-end)
  IC50: 100 to 1000 nM

## COc1ccnc(N)c1C(=O)N[C@H]1CCC[C@@H]1OCc1ccc(-c2ccc3c(c2)C(C)(C)CC3N2CCN(C)CC2)cc1 (stereo partly drawn) [Example 138, 2-amino-N-[(1S,2S)-2-({4-[3,3-dimethyl-1-(4-methylpiperazin-1-yl)-2,3-dihydro-1H-inden-5-yl]phenyl}methoxy)cyclopentyl]-4-methoxypyridine-3-carboxamide]
Human TYRO3 (455-end)
  IC50: 100 to 1000 nM
Human AXL (473-end)
  IC50: < 10 nM
Human MER (528-end)
  IC50: < 10 nM

## CN1CCN(C2CCC(C)(C)c3cc(-c4ccc(CO[C@H]5CCC[C@@H]5NC(=O)c5cc(-c6cnn(C)c6)cnc5N)cc4)ccc32)CC1 (stereo partly drawn) [Example 147, 2-amino-N-[(1S,2S)-2-({4-[8,8-dimethyl-5-(4-methylpiperazin-1-yl)-5,6,7,8-tetrahydronaphthalen-2-yl]phenyl}methoxy)cyclopentyl]-5-(1-methyl-1H-pyrazol-4-yl)pyridine-3-carboxamide]
Human TYRO3 (455-end)
  IC50: 10 to 100 nM
Human AXL (473-end)
  IC50: < 10 nM
Human MER (528-end)
  IC50: < 10 nM

## CN1CCC(c2c[nH]c3cc(-c4ccc(CO[C@H]5CCC[C@@H]5NC(=O)c5cc(-c6cnn(C)c6)cnc5N)cc4)ccc23)CC1 [Example 15, 2-amino-N-[(1S,2S)-2-({4-[3-(1-methylpiperidin-4-yl)-1H-indol-6-yl]phenyl}methoxy)cyclopentyl]-5-(1-methyl-1H-pyrazol-4-yl)pyridine-3-carboxamide]
Human TYRO3 (455-end)
  IC50: > 1000 nM
Human AXL (473-end)
  IC50: 100 to 1000 nM
Human MER (528-end)
  IC50: 10 to 100 nM

## Cc1cn(C2CCN(CCO)CC2)c2ncc(-c3ccc(CO[C@H]4CCC[C@@H]4NC(=O)c4cc(-c5cnn(C)c5)cnc4N)cc3)cc12 [Example 110, 2-amino-N-{(1S,2S)-2-[(4-{1-[1-(2-hydroxyethyl)piperidin-4-yl]-3-methyl-1H-pyrrolo[2,3-b]pyridin-5-yl}phenyl)methoxy]cyclopentyl}-5-(1-methyl-1H-pyrazol-4-yl)pyridine-3-carboxamide]
Human TYRO3 (455-end)
  IC50: 100 to 1000 nM
Human AXL (473-end)
  IC50: < 10 nM
Human MER (528-end)
  IC50: < 10 nM

## Cn1cc(-c2cnc(N)c(C(=O)N[C@H]3CCC[C@@H]3OCc3ccc(-c4ccc5c(c4)C4(CC4)CN5C4CCN(CCO)CC4)cc3)c2)cn1 [Example 28, 2-amino-N-{(1S,2S)-2-[(4-{1′-[1-(2-hydroxyethyl)piperidin-4-yl]-1′,2′-dihydrospiro[cyclopropane-1,3′-indol]-5′-yl}phenyl)methoxy]cyclopentyl}-5-(1-methyl-1H-pyrazol-4-yl)pyridine-3-carboxamide]
Human TYRO3 (455-end)
  IC50: 10 to 100 nM
Human AXL (473-end)
  IC50: 10 to 100 nM
Human MER (528-end)
  IC50: 10 to 100 nM
